Tests used:
Balb/c mice [1] = assay: Detection of peptide immunogenicity by polypeptide chip: vaccine peptide-specific signal sequencing (timing-sequence response, Fisher exact test); type: in vivo; settings: Embodiment IV; 7-peptide mixed solution with adjuvant: Mix 1 AddaVax, 2 Imject Alumn, 3 Alhydrogel, 4 Adju-Phos, 5 MA103A, 6 MA103B
Balb/c mice [2] = assay: Polypeptide chip-based vaccine immunogenicity scoring system; type: in vivo; set-up: key to A2: whether the 95 percentile of the last sampling is increased compared with the end point: Y = rise; N = no rise; settings: Embodiment III, polypeptide-KLH; for A1: difference between a highest median and a D 0 median (95 percentile) / A2: whether the 95 percentile of the last sampling is increased compared with the end point: Mix1-10; for Total single peptide: A*3 + B*2 + C*1; for A: 95 percentile grouping number score / B: Mouse performance score: total score = 5; for C1: #A timing-sequence response peptide fragment set / C2: #B vaccine specificity peptide fragment set / C3: Intersection of A and B / C4: Percentage of the intersection in set B / C: Timing-sequence response and specificity score: value of the whole mix

Substance | #A timing-sequence response peptide fragment set (Balb/c mice [1]) | #B vaccine specificity peptide fragment set (Balb/c mice [1]) | Intersection of A and B (Balb/c mice [1]) | Mode I (Balb/c mice [1]) | Mode II (Balb/c mice [1]) | B1: D 0-D 14 95 percentile rise in the number of mice (Balb/c mice [2]) | B2: D 0-D 21 95 percentile rise in the number of mice (Balb/c mice [2]) | B3: D 14-D 21 95 percentile rise in the number of mice (Balb/c mice [2]) | B4: D 21-D 28 95 percentile rise in the number of mice (Balb/c mice [2]) | A1: difference between a highest median and a D 0 median (95 percentile) (Balb/c mice [2]) | A2: whether the 95 percentile of the last sampling is increased compared with the end point (Balb/c mice [2]) | Total single peptide (Balb/c mice [2]) | A: 95 percentile grouping number score (Balb/c mice [2]) | B: Mouse performance score (Balb/c mice [2]) | C1: #A timing-sequence response peptide fragment set (Balb/c mice [2]) | C2: #B vaccine specificity peptide fragment set (Balb/c mice [2]) | C3: Intersection of A and B (Balb/c mice [2]) | C4: Percentage of the intersection in set B (Balb/c mice [2]) | C: Timing-sequence response and specificity score (Balb/c mice [2])
2 (RGGSYTNDKAC; SARS-CoV-2) [compound 2] | 100 | 1244 | 3 | 74 | 31 | – | – | – | – | – | – | – | – | – | – | – | – | – | –
4 (ALDPLSETKCT; SARS-CoV-2) [compound 4] | 203 | 1244 | 0 | 23 | 183 | – | – | – | – | – | – | – | – | – | – | – | – | – | –
1 (YTNDKACPL; SARS-CoV-2) [compound 1] | 237 | 1244 | 0 | 87 | 157 | – | – | – | – | – | – | – | – | – | – | – | – | – | –
5 (GRLQSLQTY; SARS-CoV-2) [compound 5] | 260 | 1244 | 3 | 102 | 171 | – | – | – | – | – | – | – | – | – | – | – | – | – | –
FHPLADNKF (SARS-CoV-2) [SEQ ID NO:17] | – | – | – | – | – | 3 | 2 | 0 | 2 | 0.10 | Y | 17.4 | 4.5 | 1.7 | 133 | 431 | 1 | 0.232 | 0.5
YYKKDNSYF (SARS-CoV-2) [SEQ ID NO:25] | – | – | – | – | – | 2 | 3 | 2 | 1 | 0.06 | N | 9.1 | 1.5 | 1.8 | 823 | 398 | 7 | 1.759 | 1
EVFAQVKQIY (SARS-CoV-2) [SEQ ID NO:13] | – | – | – | – | – | 3 | 3 | 0 | 2 | 0.08 | Y | 14.8 | 3.5 | 1.9 | 1212 | 389 | 1 | 0.257 | 0.5
3 (SVYAWNRKR; SARS-CoV-2) [compound 3] | 123 | 1244 | 2 | 73 | 53 | – | – | – | – | – | – | – | – | – | – | – | – | – | –
ALNTPKDH (SARS-CoV-2) [SEQ ID NO:19] | – | – | – | – | – | 3 | 3 | 0 | 1 | 0.12 | N | 17.9 | 4.5 | 1.7 | 288 | 268 | 4 | 1.493 | 1

From patent US20230136600A1, “Method and device for screening antigen epitope polypeptide” (priority 2020, published 2023)
